Measured values: PubChem BioAssay AID1963436 (Molecular Pharmacology Branch, DTP, NCI, 2024)

Tested on: OVCAR-5 complex spheroid (HUVEC/MSC), viability % T/C
Test: Anticancer human tumor OVCAR-5 cell line growth inhibition [Asc];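 also: spheroids exposed to agents for 7 days before readout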;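 as to viability, T/C: 100% = DMSO vehicle-treated wells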
Details: for IC50: curve of first compound; for viability, T/C: stronger effect = lower value
Summary of the method: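 Stromal components (HUVEC and hMSC) are co-assembled with the cancer cells into multicellular spheroids. Drugs are then added singly or paired, at concentrations falling by half-log increments from a clinically achievable maximum, capped at 10 microM without known Cmax.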

With `COc1c(OCCCN2CCOCC2)ccc2c3n(c(=NC(=O)c4cnc(N)nc4)nc12)CCN3` + CNC(C)C(=O)NC1CN(S(=O)(=O)c2cccc(S(=O)(=O)N3CCC4CCC(C(=O)NC(c5ccccc5)c5ccccc5)N4C(=O)C(NC(=O)C(C)NC)C3)c2)CCC2CCC(C(=O)NC(c3ccccc3)c3ccccc3)N2C1=O as the molecule, how does the IC50 (second compound 0.01 µM) read?
Its IC50 is 29.5 nM.

And the IC50 (second compound 0.0316 µM)?
The IC50 was 22.4 nM.

What about the IC50 (second compound 0.1 µM) of the same molecule?
Its IC50 is 19.5 nM.

And the IC50 (second compound 0.316 µM)?
Its IC50 is 18.7 nM.

What about the IC50 (second compound 1 µM) of the same molecule?
The IC50 was 17.6 nM.

What about the viability, T/C (second compound 0.01 µM, first compound 0.00316 µM) of the same molecule?
The viability, T/C was 93.3%.

And the viability, T/C (second compound 0.01 µM, first compound 0.01 µM)?
The viability, T/C was 67.4%.

What about the viability, T/C (second compound 0.01 µM, first compound 0.0316 µM) of the same molecule?
The viability, T/C was 48%.

What about the viability, T/C (second compound 0.01 µM, first compound 0.1 µM) of the same molecule?
The viability, T/C was 35%.

And the viability, T/C (second compound 0.01 µM, first compound 0.316 µM)?
Its viability, T/C is 17.1%.

What about the viability, T/C (second compound 0.01 µM, first compound 1 µM) of the same molecule?
Its viability, T/C is 8.86%.

What about the viability, T/C (second compound 0.0316 µM, first compound 0.00316 µM) of the same molecule?
The viability, T/C was 69.8%.

What about the viability, T/C (second compound 0.0316 µM, first compound 0.01 µM) of the same molecule?
The viability, T/C was 63.6%.

And the viability, T/C (second compound 0.0316 µM, first compound 0.0316 µM)?
The viability, T/C was 42.5%.

What about the viability, T/C (second compound 0.0316 µM, first compound 0.1 µM) of the same molecule?
Its viability, T/C is 30.2%.

And the viability, T/C (second compound 0.0316 µM, first compound 0.316 µM)?
Its viability, T/C is 17.6%.

What about the viability, T/C (second compound 0.0316 µM, first compound 1 µM) of the same molecule?
The viability, T/C was 7.75%.

What about the viability, T/C (second compound 0.1 µM, first compound 0.00316 µM) of the same molecule?
Its viability, T/C is 68%.

And the viability, T/C (second compound 0.1 µM, first compound 0.01 µM)?
Its viability, T/C is 61.5%.

What about the viability, T/C (second compound 0.1 µM, first compound 0.0316 µM) of the same molecule?
The viability, T/C was 41.5%.

And the viability, T/C (second compound 0.1 µM, first compound 0.1 µM)?
Its viability, T/C is 26.3%.

And the viability, T/C (second compound 0.1 µM, first compound 0.316 µM)?
Its viability, T/C is 15.9%.

What about the viability, T/C (second compound 0.1 µM, first compound 1 µM) of the same molecule?
The viability, T/C was 7.03%.

And the viability, T/C (second compound 0.316 µM, first compound 0.00316 µM)?
Its viability, T/C is 67.1%.

What about the viability, T/C (second compound 0.316 µM, first compound 0.01 µM) of the same molecule?
The viability, T/C was 59.9%.

And the viability, T/C (second compound 0.316 µM, first compound 0.0316 µM)?
The viability, T/C was 41.7%.

What about the viability, T/C (second compound 0.316 µM, first compound 0.1 µM) of the same molecule?
Its viability, T/C is 25.3%.

And the viability, T/C (second compound 0.316 µM, first compound 0.316 µM)?
Its viability, T/C is 13.1%.

And the viability, T/C (second compound 0.316 µM, first compound 1 µM)?
The viability, T/C was 6.27%.

What about the viability, T/C (second compound 1 µM, first compound 0.00316 µM) of the same molecule?
Its viability, T/C is 82.9%.

And the viability, T/C (second compound 1 µM, first compound 0.01 µM)?
Its viability, T/C is 56.1%.

What about the viability, T/C (second compound 1 µM, first compound 0.0316 µM) of the same molecule?
The viability, T/C was 42.1%.

What about the viability, T/C (second compound 1 µM, first compound 0.1 µM) of the same molecule?
Its viability, T/C is 27.1%.

And the viability, T/C (second compound 1 µM, first compound 0.316 µM)?
Its viability, T/C is 12.3%.

What about the viability, T/C (second compound 1 µM, first compound 1 µM) of the same molecule?
Its viability, T/C is 6.51%.

`Cn1ncnc1[C@H]1c2n[nH]c(=O)c3cc(F)cc(c23)N[C@@H]1c1ccc(F)cc1` + CCN1C(C(=O)NC23CCC(C(=O)O)(CC2)CC3)C(c2cccc(Cl)c2F)C2(C(=O)Nc3cc(Cl)ccc32)C12CCCCC2 was tested. Which IC50 (second compound 0.03 µM) did it give?
The IC50 was over 100 nM.

What about the IC50 (second compound 0.0949 µM) of the same molecule?
Its IC50 is over 100 nM.

What about the IC50 (second compound 0.3 µM) of the same molecule?
Its IC50 is over 100 nM.

What about the IC50 (second compound 0.949 µM) of the same molecule?
Its IC50 is over 100 nM.

And the IC50 (second compound 3 µM)?
Its IC50 is over 100 nM.

What about the viability, T/C (second compound 0.03 µM, first compound 0.000316 µM) of the same molecule?
The viability, T/C was 108%.

And the viability, T/C (second compound 0.03 µM, first compound 0.001 µM)?
The viability, T/C was 108%.

And the viability, T/C (second compound 0.03 µM, first compound 0.00316 µM)?
Its viability, T/C is 88.9%.

And the viability, T/C (second compound 0.03 µM, first compound 0.01 µM)?
Its viability, T/C is 94%.

And the viability, T/C (second compound 0.03 µM, first compound 0.0316 µM)?
The viability, T/C was 96%.

What about the viability, T/C (second compound 0.03 µM, first compound 0.1 µM) of the same molecule?
The viability, T/C was 91.1%.

What about the viability, T/C (second compound 0.0949 µM, first compound 0.000316 µM) of the same molecule?
The viability, T/C was 103%.

What about the viability, T/C (second compound 0.0949 µM, first compound 0.001 µM) of the same molecule?
The viability, T/C was 109%.

And the viability, T/C (second compound 0.0949 µM, first compound 0.00316 µM)?
Its viability, T/C is 89.7%.

And the viability, T/C (second compound 0.0949 µM, first compound 0.01 µM)?
The viability, T/C was 91%.

And the viability, T/C (second compound 0.0949 µM, first compound 0.0316 µM)?
The viability, T/C was 101%.

What about the viability, T/C (second compound 0.0949 µM, first compound 0.1 µM) of the same molecule?
The viability, T/C was 82.8%.

And the viability, T/C (second compound 0.3 µM, first compound 0.000316 µM)?
The viability, T/C was 112%.

What about the viability, T/C (second compound 0.3 µM, first compound 0.001 µM) of the same molecule?
Its viability, T/C is 114%.

And the viability, T/C (second compound 0.3 µM, first compound 0.00316 µM)?
The viability, T/C was 102%.

And the viability, T/C (second compound 0.3 µM, first compound 0.01 µM)?
Its viability, T/C is 80.7%.

What about the viability, T/C (second compound 0.3 µM, first compound 0.0316 µM) of the same molecule?
The viability, T/C was 98.3%.

And the viability, T/C (second compound 0.3 µM, first compound 0.1 µM)?
The viability, T/C was 98.8%.

What about the viability, T/C (second compound 0.949 µM, first compound 0.000316 µM) of the same molecule?
Its viability, T/C is 112%.

What about the viability, T/C (second compound 0.949 µM, first compound 0.001 µM) of the same molecule?
The viability, T/C was 121%.

What about the viability, T/C (second compound 0.949 µM, first compound 0.00316 µM) of the same molecule?
Its viability, T/C is 106%.

What about the viability, T/C (second compound 0.949 µM, first compound 0.01 µM) of the same molecule?
The viability, T/C was 97.4%.

What about the viability, T/C (second compound 0.949 µM, first compound 0.0316 µM) of the same molecule?
The viability, T/C was 106%.

What about the viability, T/C (second compound 0.949 µM, first compound 0.1 µM) of the same molecule?
The viability, T/C was 88.7%.

What about the viability, T/C (second compound 3 µM, first compound 0.000316 µM) of the same molecule?
The viability, T/C was 109%.

What about the viability, T/C (second compound 3 µM, first compound 0.001 µM) of the same molecule?
Its viability, T/C is 105%.

And the viability, T/C (second compound 3 µM, first compound 0.00316 µM)?
The viability, T/C was 109%.

What about the viability, T/C (second compound 3 µM, first compound 0.01 µM) of the same molecule?
Its viability, T/C is 91.4%.

What about the viability, T/C (second compound 3 µM, first compound 0.0316 µM) of the same molecule?
Its viability, T/C is 106%.

And the viability, T/C (second compound 3 µM, first compound 0.1 µM)?
The viability, T/C was 89%.
